Experimental data from patent US20250270209A1 (INTERLINE THERAPEUTICS, INC., priority 2022, published 2025).

Assays:
[1] = molecular target: T1, wild type LRRK2 overexpressed in recombinant HEK-293T cells (Homo sapiens, UniProt Q5S007); experiment: pS935 LRRK2 Cell Assay (HTRF, phospho-LRRK2 Ser935); format: cell-based; details: LRRK2 Inhibition, Table 8, 2 hours compound incubation
T1 construct: host or cells: HEK293T (transient transfection with pCMV-LRRK2 WT plasmid)
Summary of the method: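 Phospho-Ser935 LRRK2 measured by two-antibody HTRF (Eu-cryptate donor, d2 acceptor; 665/615 nm ratio) after overnight detection at 23° C. Before lysis, transiently LRRK2-transfected HEK-293T cells were exposed 2 h at 37° C to a 9-point, 3-fold series from 10 μM, with DMSO at 0.2%.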

LRRK2 wild type enzyme = LRRK2 wild type enzyme (Homo sapiens, UniProt Q5S007); experiment: Biochemical Assay: LRRK2 TR-FRET (LanthaScreen) kinase assay with LRRKtide substrate; details: LRRK2 Inhibition, Table 8
Summary of the method: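 TR-FRET detection (Tb-labelled phospho-LRRKtide antibody, EDTA stop, 30 min) followed a 120 min, 23 °C reaction of 3 nM wild-type human LRRK2 with LRRKtide (400 nM) and ATP (25 μM) in Tris pH 8.0. Compounds: 11-point 3-fold series from 10 μM, 15 min enzyme preincubation.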

T1 sequence (Q5S007 whole entry): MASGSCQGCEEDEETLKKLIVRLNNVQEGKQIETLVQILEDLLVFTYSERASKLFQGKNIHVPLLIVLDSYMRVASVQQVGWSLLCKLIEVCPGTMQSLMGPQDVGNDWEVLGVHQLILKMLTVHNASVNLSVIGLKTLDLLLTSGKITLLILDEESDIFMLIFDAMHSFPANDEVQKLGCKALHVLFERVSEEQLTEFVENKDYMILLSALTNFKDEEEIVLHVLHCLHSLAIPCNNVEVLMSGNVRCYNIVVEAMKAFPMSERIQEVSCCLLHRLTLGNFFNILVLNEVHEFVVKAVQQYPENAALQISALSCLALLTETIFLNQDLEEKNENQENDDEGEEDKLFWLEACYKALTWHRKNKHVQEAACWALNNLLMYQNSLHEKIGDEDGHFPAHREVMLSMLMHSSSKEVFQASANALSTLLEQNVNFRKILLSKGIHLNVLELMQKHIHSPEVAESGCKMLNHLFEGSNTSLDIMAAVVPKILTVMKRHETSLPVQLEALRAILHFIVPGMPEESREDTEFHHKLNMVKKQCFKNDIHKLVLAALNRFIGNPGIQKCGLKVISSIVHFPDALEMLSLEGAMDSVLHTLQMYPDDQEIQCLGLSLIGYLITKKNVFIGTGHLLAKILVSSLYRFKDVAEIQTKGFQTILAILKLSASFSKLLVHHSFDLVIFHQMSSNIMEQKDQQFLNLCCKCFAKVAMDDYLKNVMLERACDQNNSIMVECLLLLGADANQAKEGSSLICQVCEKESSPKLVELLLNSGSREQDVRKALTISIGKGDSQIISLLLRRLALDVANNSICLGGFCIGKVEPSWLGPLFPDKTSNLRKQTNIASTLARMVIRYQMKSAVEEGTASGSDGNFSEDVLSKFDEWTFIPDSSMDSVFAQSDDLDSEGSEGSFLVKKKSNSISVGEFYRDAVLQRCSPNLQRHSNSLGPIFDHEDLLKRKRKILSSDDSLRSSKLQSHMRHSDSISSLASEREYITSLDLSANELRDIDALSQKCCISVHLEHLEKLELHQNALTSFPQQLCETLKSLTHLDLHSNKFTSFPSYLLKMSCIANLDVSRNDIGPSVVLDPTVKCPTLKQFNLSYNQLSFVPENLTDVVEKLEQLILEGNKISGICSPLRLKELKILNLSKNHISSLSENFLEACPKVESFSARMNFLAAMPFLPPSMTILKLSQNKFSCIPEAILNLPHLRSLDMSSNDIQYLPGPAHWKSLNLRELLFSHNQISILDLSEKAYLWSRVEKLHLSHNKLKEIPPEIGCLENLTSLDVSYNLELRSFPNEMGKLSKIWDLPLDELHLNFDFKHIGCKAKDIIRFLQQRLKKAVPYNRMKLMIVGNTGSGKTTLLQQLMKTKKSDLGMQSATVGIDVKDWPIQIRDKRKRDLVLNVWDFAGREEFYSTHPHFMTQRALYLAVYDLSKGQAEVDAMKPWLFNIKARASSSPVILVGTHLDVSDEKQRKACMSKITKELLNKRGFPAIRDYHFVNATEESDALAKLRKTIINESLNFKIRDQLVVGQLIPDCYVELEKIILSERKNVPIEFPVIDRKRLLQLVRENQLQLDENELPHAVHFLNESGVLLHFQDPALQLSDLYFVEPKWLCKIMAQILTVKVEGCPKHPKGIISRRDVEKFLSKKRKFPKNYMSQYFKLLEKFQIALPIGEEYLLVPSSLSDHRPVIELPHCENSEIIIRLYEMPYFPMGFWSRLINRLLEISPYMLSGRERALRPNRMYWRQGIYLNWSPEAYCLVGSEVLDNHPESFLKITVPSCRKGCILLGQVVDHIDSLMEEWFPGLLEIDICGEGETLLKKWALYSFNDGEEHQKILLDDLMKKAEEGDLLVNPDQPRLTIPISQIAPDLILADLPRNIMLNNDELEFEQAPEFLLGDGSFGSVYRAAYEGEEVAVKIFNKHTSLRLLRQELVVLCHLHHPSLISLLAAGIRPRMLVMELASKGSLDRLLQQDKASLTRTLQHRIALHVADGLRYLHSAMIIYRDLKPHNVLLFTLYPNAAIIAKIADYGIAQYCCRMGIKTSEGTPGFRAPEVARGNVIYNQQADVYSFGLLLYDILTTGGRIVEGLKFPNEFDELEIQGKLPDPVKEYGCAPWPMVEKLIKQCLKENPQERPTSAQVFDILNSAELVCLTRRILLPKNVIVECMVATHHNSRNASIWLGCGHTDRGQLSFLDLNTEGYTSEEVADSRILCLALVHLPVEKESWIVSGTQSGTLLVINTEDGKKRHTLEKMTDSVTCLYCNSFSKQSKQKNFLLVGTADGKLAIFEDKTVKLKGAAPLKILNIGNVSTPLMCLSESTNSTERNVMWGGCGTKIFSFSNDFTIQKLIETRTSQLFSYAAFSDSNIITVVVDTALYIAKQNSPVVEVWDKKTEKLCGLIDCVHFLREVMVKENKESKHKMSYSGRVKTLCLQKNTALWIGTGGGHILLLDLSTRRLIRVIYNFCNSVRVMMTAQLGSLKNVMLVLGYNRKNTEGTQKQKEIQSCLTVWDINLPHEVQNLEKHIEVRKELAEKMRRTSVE
Chain of LRRK2 wild type enzyme (Q5S007 whole entry): as above

Structure (SMILES)	IC50 [1]	IC50 (LRRK2 wild type enzyme)
C[C@@H]1C[C@H](n2c(C3CCN(S(=O)(=O)c4cnn(C)c4)CC3)nc3cnc4ccc(C#N)cc4c32)CCO1 [Compound 121, 2-{1-[(1-methyl-1H-pyrazol-4-yl)sulfonyl]piperidin-4-yl}-1-[(2R,4R)-2-methyloxan-4-yl]-1H-imidazo[4,5-c]quinoline-8-carbonitrile]	493 nM	1.81 nM
C[C@@H]1C[C@H](n2c(CC(=O)NC3CC34CC4)nc3cnc4ccc(C#N)cc4c32)CCO1 (stereo partly drawn) [Compound 249, N-1-spiro[2.2]pentyl{3-[(2R,4R)-2-methyltetrahydro-2H-pyran-4-yl]-12-cyano-3,5,8-triazatricyclo[7.4.0.0^2,6]trideca-1(9),2(6),4,7,10,12-hexaen-4-yl}acetamide]	17.4 nM	0.691 nM
C[C@@H]1C[C@H](n2c(CC(=O)Nc3cncnc3)nc3cnc4ccc(C#N)cc4c32)CCO1 [Compound 322, N-5-pyrimidinyl{3-[(2R,4R)-2-methyltetrahydro-2H-pyran-4-yl]-12-cyano-3,5,8-triazatricyclo[7.4.0.0^2,6]trideca-1(9),2(6),4,7,10,12-hexaen-4-yl}acetamide]	32.2 nM	1.08 nM
Cc1oncc1NC(=O)Cc1nc2cnc3ccc(C#N)cc3c2n1[C@@H]1CCO[C@H](C)C1 [Compound 209, N-(5-methyl-4-isoxazolyl){3-[(2R,4R)-2-methyltetrahydro-2H-pyran-4-yl]-12-cyano-3,5,8-triazatricyclo[7.4.0.0^2,6]trideca-1,4,6,8,10,12-hexaen-4-yl}acetamide]	13.2 nM	0.427 nM
CN1CC(n2c(C3CC(=O)N(CC4CC4)C3)nc3cnc4ccc(C#N)cc4c32)CCC1=O (single isomer, unassigned) [Compound 140]	> 10000 nM	42.1 nM
C[C@@H]1C[C@H](n2c(CC(=O)Nc3cnoc3)nc3cnc4ccc(C#N)cc4c32)CCO1 [Compound 180, 2-{8-cyano-1-[(2R,4R)-2-methyloxan-4-yl]-1H-imidazo[4,5-c]quinolin-2-yl}-N-(1,2-oxazol-4-yl)acetamide]	21.6 nM	0.432 nM
C[C@@H]1C[C@H](n2c(CC(=O)Nc3ccnn(C)c3=O)nc3cnc4ccc(C#N)cc4c32)CCO1 [Compound 215, N-(2-methyl-3-oxo-2,3-dihydro-4-pyridazinyl){3-[(2R,4R)-2-methyltetrahydro-2H-pyran-4-yl]-12-cyano-3,5,8-triazatricyclo[7.4.0.0^2,6]trideca-1,4,6,8,10,12-hexaen-4-yl}acetamide]	5.85 nM	0.438 nM
C[C@@H]1C[C@H](n2c(CC(=O)Nc3cnccc3C#N)nc3cnc4ccc(C#N)cc4c32)CCO1 [Compound 271, N-(4-cyano-3-pyridyl){3-[(2R,4R)-2-methyltetrahydro-2H-pyran-4-yl]-12-cyano-3,5,8-triazatricyclo[7.4.0.0^2,6]trideca-1,4,6,8,10,12-hexaen-4-yl}acetamide]	8.43 nM	0.643 nM
C[C@@H]1C[C@H](n2c(CC(=O)NC3CC3)nc3cnc4ccc(Cl)cc4c32)CCO1 [Compound 183, 2-{8-chloro-1-[(2R,4R)-2-methyloxan-4-yl]-1H-imidazo[4,5-c]quinolin-2-yl}-N-cyclopropylacetamide]	11.1 nM	0.258 nM
C[C@@H]1C[C@H](n2c(CC(=O)Nc3cnn(C)c3CO)nc3cnc4ccc(C#N)cc4c32)CCO1 [Compound 158, 2-{8-cyano-1-[(2R,4R)-2-methyloxan-4-yl]-1H-imidazo[4,5-c]quinolin-2-yl}-N-[5-(hydroxymethyl)-1-methyl-1H-pyrazol-4-yl]acetamide]	272 nM	0.454 nM
C[C@@H]1C[C@H](n2c(CC(=O)NCC(C)(C)CO)nc3cnc4ccc(C#N)cc4c32)CCO1 [Compound 241, N-(3-hydroxy-2,2-dimethylpropyl){3-[(2R,4R)-2-methyltetrahydro-2H-pyran-4-yl]-12-cyano-3,5,8-triazatricyclo[7.4.0.0^2,6]trideca-1(9),2(6),4,7,10,12-hexaen-4-yl}acetamide]	77.6 nM	0.991 nM
CCOc1ccc(NC(=O)Cc2nc3cnc4ccc(C#N)cc4c3n2[C@@H]2CCO[C@H](C)C2)cn1 [Compound 274, N-(6-ethoxy-3-pyridyl){3-[(2R,4R)-2-methyltetrahydro-2H-pyran-4-yl]-12-cyano-3,5,8-triazatricyclo[7.4.0.0^2,6]trideca-1,4,6,8,10,12-hexaen-4-yl}acetamide]	7.97 nM	0.445 nM
C[C@@H]1C[C@H](n2c(C3CC(=O)N(CC4CC4)C3)nc3cnc4ccc(Cl)cc4c32)CCO1 (stereo partly drawn) [Compound 3, 4-{8-chloro-1-[(2R,4R)-2-methyloxan-4-yl]-1H-imidazo[4,5-c]quinolin-2-yl}-1-(cyclopropylmethyl)pyrrolidin-2-one]	88.7 nM	1.21 nM
C[C@@H]1C[C@H](n2c(CC(=O)Nc3ccno3)nc3cnc4ccc(Cl)cc4c32)CCO1 [Compound 351, N-5-isoxazolyl{3-[(2R,4R)-2-methyltetrahydro-2H-pyran-4-yl]-12-chloro-3,5,8-triazatricyclo[7.4.0.0^2,6]trideca-1(9),2(6),4,7,10,12-hexaen-4-yl}acetamide]	10.4 nM	0.597 nM
CCOc1ncccc1NC(=O)Cc1nc2cnc3ccc(C#N)cc3c2n1[C@@H]1CCO[C@H](C)C1 [Compound 275, N-(2-ethoxy-3-pyridyl){3-[(2R,4R)-2-methyltetrahydro-2H-pyran-4-yl]-12-cyano-3,5,8-triazatricyclo[7.4.0.0^2,6]trideca-1,4,6,8,10,12-hexaen-4-yl}acetamide]	2.41 nM	0.478 nM
COc1ncnc(OC)c1NC(=O)Cc1nc2cnc3ccc(C#N)cc3c2n1[C@@H]1CCO[C@H](C)C1 [Compound 247, N-(4,6-dimethoxy-5-pyrimidinyl){3-[(2R,4R)-2-methyltetrahydro-2H-pyran-4-yl]-12-cyano-3,5,8-triazatricyclo[7.4.0.0^2,6]trideca-1(9),2(6),4,7,10,12-hexaen-4-yl}acetamide]	4.06 nM	0.348 nM
C[C@@H]1C[C@H](n2c(CNC(=O)C3CC3)nc3cnc4ccc(C#N)cc4c32)CCO1 [Compound 17, N-({8-cyano-1-[(2R,4R)-2-methyloxan-4-yl]-1H-imidazo[4,5-c]quinolin-2-yl}methyl)cyclopropanecarboxamide]	477 nM	6.61 nM
C[C@@H]1C[C@H](n2c(CC(=O)NC3CC3(F)F)nc3cnc4ccc(C#N)cc4c32)CCO1 (stereo partly drawn) [Compound 288, N-2,2-difluorocyclopropyl{3-[(2R,4R)-2-methyltetrahydro-2H-pyran-4-yl]-12-cyano-3,5,8-triazatricyclo[7.4.0.0^2,6]trideca-1,4,6,8,10,12-hexaen-4-yl}acetamide]	39 nM	0.642 nM
C[C@@H]1C[C@H](n2c(CNc3ncccn3)nc3cnc4ccc(C#N)cc4c32)CCO1 [Compound 105, 1-[(2R,4R)-2-methyloxan-4-yl]-2-{[(pyrimidin-2-yl)amino]methyl}-1H-imidazo[4,5-c]quinoline-8-carbonitrile]	240 nM	3.5 nM
C[C@@H]1C[C@H](n2c(CC(=O)NC3CCCCC3)nc3cnc4ccc(C#N)cc4c32)CCO1 [Compound 309, N-cyclohexyl{3-[(2R,4R)-2-methyltetrahydro-2H-pyran-4-yl]-12-cyano-3,5,8-triazatricyclo[7.4.0.0^2,6]trideca-1,4,6,8,10,12-hexaen-4-yl}acetamide]	14.4 nM	0.635 nM
C[C@@H]1C[C@H](n2c(CC(=O)Nc3cccnc3CO)nc3cnc4ccc(C#N)cc4c32)CCO1 [Compound 283, N-[2-(hydroxymethyl)-3-pyridyl]{3-[(2R,4R)-2-methyltetrahydro-2H-pyran-4-yl]-12-cyano-3,5,8-triazatricyclo[7.4.0.0^2,6]trideca-1,4,6,8,10,12-hexaen-4-yl}acetamide]	27.3 nM	0.572 nM
C[C@@H]1C[C@H](n2c(CC(=O)Nc3ccn(C)c(=O)c3)nc3cnc4ccc(Cl)cc4c32)CCO1 [Compound 212, N-(1-methyl-2-oxo-1,2-dihydro-4-pyridyl){3-[(2R,4R)-2-methyltetrahydro-2H-pyran-4-yl]-12-chloro-3,5,8-triazatricyclo[7.4.0.0^2,6]trideca-1,4,6,8,10,12-hexaen-4-yl}acetamide]	11.5 nM	0.331 nM
C[C@@H]1C[C@H](n2c(CC(=O)Nc3ccn(C4CC4)n3)nc3cnc4ccc(C#N)cc4c32)CCO1 [Compound 354, N-(1-cyclopropyl-3-pyrazolyl){3-[(2R,4R)-2-methyltetrahydro-2H-pyran-4-yl]-12-cyano-3,5,8-triazatricyclo[7.4.0.0^2,6]trideca-1(9),2(6),4,7,10,12-hexaen-4-yl}acetamide]	14.8 nM	0.447 nM
C[C@@H]1C[C@H](n2c(CC(=O)NC3COC3)nc3cnc4ccc(Cl)cc4c32)CCO1 [Compound 141, 2-{8-chloro-1-[(2R,4R)-2-methyloxan-4-yl]-1H-imidazo[4,5-c]quinolin-2-yl}-N-(oxetan-3-yl)acetamide]	18.7 nM	0.53 nM
C[C@@H]1C[C@H](n2c(CC(=O)Nc3cnn(C)c3)nc3cnc4ccc(C#N)cc4c32)CCO1 [Compound 88, 2-{8-cyano-1-[(2R,4R)-2-methyloxan-4-yl]-1H-imidazo[4,5-c]quinolin-2-yl}-N-(1-methyl-1H-pyrazol-4-yl)acetamide]	24.4 nM	0.457 nM
C[C@@H]1C[C@H](n2c(CC(=O)NCc3ccccn3)nc3cnc4ccc(C#N)cc4c32)CCO1 [Compound 86, 2-{8-cyano-1-[(2R,4R)-2-methyloxan-4-yl]-1H-imidazo[4,5-c]quinolin-2-yl}-N-[(pyridin-2-yl)methyl]acetamide]	7.12 nM	0.422 nM
